The target of assay [1] is T1, Thromboxane (Homo sapiens, UniProt P21731).
T1 construct: endogenous in cells; host or cells: human platelets (platelet-rich plasma passed through Sepharose 2B)
T1 sequence (P21731 1-343): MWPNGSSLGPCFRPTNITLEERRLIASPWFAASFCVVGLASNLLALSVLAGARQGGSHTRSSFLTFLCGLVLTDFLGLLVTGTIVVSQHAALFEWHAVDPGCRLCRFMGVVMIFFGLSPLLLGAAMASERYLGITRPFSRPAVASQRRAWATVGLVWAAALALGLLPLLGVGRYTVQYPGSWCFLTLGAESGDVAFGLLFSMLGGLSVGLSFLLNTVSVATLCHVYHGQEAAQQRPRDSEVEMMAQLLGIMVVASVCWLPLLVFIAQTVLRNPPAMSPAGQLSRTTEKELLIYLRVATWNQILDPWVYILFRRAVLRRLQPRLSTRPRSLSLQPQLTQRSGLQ
As to the kind of experiment: Thromboxane-antagonistic activity (displacement of 3H-labelled ligand on human platelets). Format: binding. To be noted: human platelet suspension, 60 minutes at ambient temperature. Here is the method: Thromboxane-antagonistic Activity
Venous human blood is anti-coagulated with 13 mM Na3 citrate and centrifuged for 10 minutes at 170×g. The supernatant platelet-rich plasma is passed through a Sepharose 2B column in order to remove the plasma proteins. Aliquots of the platelet suspension obtained are incubated with the test substance, the ligand (^3 H-labelled) and a marker (^14 C-labelled) for 60 minutes at ambient temperature and then centrifuged for 20 seconds at 10,000×g. The supernatant is removed and the pellet is dissolved in NaOH. The ^3 H activity in the supernatant corresponds to the free ligand, ^14 C gives the concentration of the marker. ^3 H in the pellet corresponds to the bound ligand whilst ^14 C is used to correct for the ligand in the extracellular space. After the process has been repeated, the displacement curve is determined from the binding values for different concentrations of the test substance and the IC50 is determined.

Assay [2] addresses T2, thromboxane synthetase (Homo sapiens, UniProt P24557).
T2 construct: endogenous in cells; host or cells: human platelets (platelet-rich plasma passed through Sepharose 2B)
T2 sequence (P24557 1-533): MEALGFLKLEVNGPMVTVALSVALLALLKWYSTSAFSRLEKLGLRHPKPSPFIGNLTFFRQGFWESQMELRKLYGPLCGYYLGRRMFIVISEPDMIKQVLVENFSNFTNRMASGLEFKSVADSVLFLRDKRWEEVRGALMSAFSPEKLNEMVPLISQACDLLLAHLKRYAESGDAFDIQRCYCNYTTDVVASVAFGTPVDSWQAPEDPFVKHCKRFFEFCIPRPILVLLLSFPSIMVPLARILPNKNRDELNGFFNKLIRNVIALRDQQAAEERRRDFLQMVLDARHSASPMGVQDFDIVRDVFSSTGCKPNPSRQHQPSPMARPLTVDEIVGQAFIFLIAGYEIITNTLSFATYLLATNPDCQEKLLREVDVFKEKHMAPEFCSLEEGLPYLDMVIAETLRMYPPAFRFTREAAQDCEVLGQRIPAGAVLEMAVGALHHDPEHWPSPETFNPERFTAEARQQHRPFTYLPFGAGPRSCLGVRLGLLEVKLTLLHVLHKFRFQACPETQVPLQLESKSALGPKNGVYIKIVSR
As to the kind of experiment: Inhibitory effect on thromboxane synthetase (TXB2 formation in human platelet suspension). To be noted: 10 minutes at ambient temperature, then 14C-labelled arachidonic acid 10 minutes, read-out: Inhibition of thromboxane synthetase IC50. Format: cell-based. Here is the method:
Determining the Inhibitory Effect on Thromboxane Synthetase
Venous human blood is anti-coagulated with 13 mM Na3 citrate and centrifuged for 10 minutes at 170×g. The supernatant platelet-rich plasma is passed through a Sepharose 2B column in order to remove the plasma proteins. Aliquots of the platelet suspension obtained are incubated with the test substance or with a solvent as control for 10 minutes at ambient temperature and after the addition of ^14 C-labelled arachidonic acid incubation is continued for a further 10 minutes. After this has been stopped with 50 μl of citric acid, extraction is carried out 3 times with 500 μl of ethyl acetate and the combined extracts are distilled off with nitrogen. The residue is taken up in ethyl acetate, placed on TLC film and separated with chloro-form:methanol:glacial acetic acid:water (90:8:1:0.8, v/v/v/v). The dried TLC films are placed on X-ray film for 3 days, the autoradiograms were developed and the active zones were marked on the film using the autoradiograms. After cutting out, the activity is measured in a scintillation counter and the inhibition of the formation of TXB2 is calculated. The IC50 is determined by linear interpolation.

The subject of assay [3] is thrombocyte aggregation. As to the kind of experiment: Antithrombotic activity: collagen-induced aggregation in platelet-rich plasma (Born and Cross). Format: cell-based. Particulars: Homo sapiens, 10 min; platelet-rich plasma from healthy volunteers; incubated 10 minutes at 37° C.; 50% change in optical density; read-out: Inhibition of collagen-induced aggregation EC50. Here is the method:
The thrombocyte aggregation is measured using the method of Born and Cross (J. Physiol. 170, 397 (1964)) in platelet-rich plasma taken from healthy volunteers. To inhibit coagulation, the blood is mixed with 3.14% strength sodium citrate in a ratio by volume of 1:10.
Collagen-induced Aggregation
The pattern of decrease in the optical density of the platelet suspension is photometrically measured and recorded after the addition of the aggregation-triggering substance. The rate of aggregation is concluded from the angle of inclination of the density curve. The point on the curve where there is greatest light transmittance is used to calculate the "optical density".
The quantity of collagen used is as little as possible but sufficient to produce an irreversible reaction curve. Standard commercial collagen produced by Hormonchemie of Munich is used. Before the addition of the collagen the plasma is incubated for 10 minutes with the substance at 37° C.
From the measurements obtained an EC50 is determined by plotting a graph, and indicates a 50% change in the "optical density" in terms of the inhibition of aggregation.

pEC50, pIC50: −log10 of the molar value.

Consider `CC(C)(C)CNC(=C[N+](=O)[O-])Nc1cccc(/C(=C\CCCC(=O)O)c2cccnc2)c1` [T, 5E-6-(3-(1-neopentylamino-2-nitro-ethyleneamino)phenyl)-6-(3-pyridyl)hex-5-enoic acid], for which the pIC50 (as a rule, the IC50 on a negative log10 scale, so that one unit is a factor of ten) in assay [1] was 6.55; in assay [2] it was 6.54. In assay [3], the pEC50 (usually −log10 of the EC50, conventionally taken in molar units) is 5.02.
Take `CC(C)(C)NC(=NC#N)NCCc1ccc(C(=CCCCC(=O)O)c2cccnc2)cc1` [U, E/Z-6-(4-(2-(2-cyano-3-tert.butyl-guanidino)ethyl)phenyl)-6-(3-pyridyl)hex-5-enoic acid]: the pIC50 is 7.30 in assay [1] and 8.15 in assay [2]. Moreover, the pEC50 in assay [3] was 5.92.
For `CC(C)CNC(=NS(N)(=O)=O)Nc1cccc(/C(=C\CCCC(=O)O)c2cccnc2)c1` [W, 5E-6-(3-(2-amidosulphonyl-3-(2-methylpropyl)guanidino)phenyl)-6-(3-pyridyl)hex-5-enoic acid], in that order: 6.22, 5.57 and 4.92.
In the case of `CC(C)CNC(Nc1cccc(/C(=C\CCCC(=O)O)c2cccnc2)c1)=C(C#N)C(N)=O` [X, 5E-6-(3-(2-carbamoyl-2-cyano-1-(2-methylpropylamino)-ethyleneamino)phenyl)-6-(3-pyridyl)hex-5-enoic acid], the pIC50 in assay [1] was 6.42; in assay [2] it was 8.30. Also, the pEC50 in assay [3] is 4.51.
For `N#CN=C(Nc1cccc(/C(=C\CCCn2cnnn2)c2cccnc2)c1)NC1CCCC1` [Y, 4E-1-(5-(3-(2-cyano-3-cyclopentyl-guanidino)phenyl)-5-(3-pyridyl)-pent-4-enyl)tetrazole] the same measures were 7.68, 6.60 and 5.92.

The values above are taken from patent US5482948A, “Pyridyl derivatives and pharmaceutical compositions comprising these compounds” (Dr. Karl Thomae GmbH, priority 1991, dated 1996).
